Results published in patent US20050020519A1, “Modulation of insulin-regulated aminopeptidase (irap)/angiotensin iv (at4) receptor activity” (priority 2001, published 2005).
Where no end group is shown, it is not given here.

What was measured:
AT4 receptor = molecular target: T1, AT4 receptor (Bos taurus, UniProt F1N1Q8); assay: AT4 radioreceptor assay, ^125I-Ang IV binding to bovine adrenal membranes
T1 construct: from tissue; host or cells: bovine adrenal gland membranes
T1 sequence (F1N1Q8 1-1022): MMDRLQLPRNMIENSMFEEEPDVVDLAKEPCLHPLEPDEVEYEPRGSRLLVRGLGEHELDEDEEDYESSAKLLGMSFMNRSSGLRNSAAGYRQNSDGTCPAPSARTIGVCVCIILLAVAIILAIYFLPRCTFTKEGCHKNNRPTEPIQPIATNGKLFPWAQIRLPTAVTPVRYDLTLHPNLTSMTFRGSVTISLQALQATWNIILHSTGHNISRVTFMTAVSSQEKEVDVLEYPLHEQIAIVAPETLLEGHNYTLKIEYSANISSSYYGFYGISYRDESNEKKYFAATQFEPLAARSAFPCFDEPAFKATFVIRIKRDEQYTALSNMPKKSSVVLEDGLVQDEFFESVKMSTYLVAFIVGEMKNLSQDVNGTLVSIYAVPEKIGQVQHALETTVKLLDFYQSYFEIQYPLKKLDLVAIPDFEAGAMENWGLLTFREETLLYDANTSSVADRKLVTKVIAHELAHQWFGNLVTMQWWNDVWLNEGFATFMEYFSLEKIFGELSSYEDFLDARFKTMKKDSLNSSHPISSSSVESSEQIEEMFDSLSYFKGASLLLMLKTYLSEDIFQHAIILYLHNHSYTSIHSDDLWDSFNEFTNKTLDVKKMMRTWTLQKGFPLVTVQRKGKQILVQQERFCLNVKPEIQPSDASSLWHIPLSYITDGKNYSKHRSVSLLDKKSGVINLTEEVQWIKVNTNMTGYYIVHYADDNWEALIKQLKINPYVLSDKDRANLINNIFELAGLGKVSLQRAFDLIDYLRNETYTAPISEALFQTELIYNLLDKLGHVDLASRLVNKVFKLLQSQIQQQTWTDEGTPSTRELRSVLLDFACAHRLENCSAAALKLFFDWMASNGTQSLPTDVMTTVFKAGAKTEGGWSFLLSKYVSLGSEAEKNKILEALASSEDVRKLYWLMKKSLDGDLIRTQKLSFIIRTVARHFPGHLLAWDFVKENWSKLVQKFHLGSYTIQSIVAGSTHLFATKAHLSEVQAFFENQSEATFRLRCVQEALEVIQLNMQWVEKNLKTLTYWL
Protocol: The AT4 radioreceptor assay was used to screen the sheep brain extracts for AT4 receptor modulatory activity. The membranes were prepared using bovine adrenal glands obtained from the abattoir. The adrenals were diced, homogenized in ice-cold hypotonic buffer (50 mM Tris, 5 mM EDTA, pH 7.4) and centrifuged for 10 min at 500 g. […] The resulting pellets were re-homogenized in hypotonic buffer. […] The samples were incubated for 2 h at 37° C., and the bound ligand was separated on Whatman GF/B glass fibre filters.

IRAP = molecular target: T2, IRAP (Homo sapiens, UniProt Q9UIQ6); assay: Degradation of peptides by IRAP expressed in HEK 293T cells, HPLC with mass spectrometric detection; type: biochemical
T2 construct: expressed in transfected cells; host or cells: HEK 293T cells (solubilised membrane protein)
Protocol: At each time point (0, 0.5, 1, 2, 4 & 6 hr), an aliquot containing 5 μg peptide was removed, and the reaction stopped by addition of 4 volumes methanol/1% trifluoroacetic acid (TPA). Samples were dried on a centrifugal vacuum evaporator prior to HPLC analysis with on-line mass spectrometric detector. […] Fragments were identified following mass spectral analysis, using Agilent ChemStation deconvolution software.

mice = assay: Y maze spatial memory, normal mice; type: in vivo, mouse
Protocol: The Y maze consists of three identical alleys (30 cm in length, 10 cm in width and 17 cm in height) with the three arms separated by 120° angles. To minimize stress, the maze is located in a sound-attenuated room under dim illumination, with the floor of the maze covered with sawdust. After each trial, the sawdust is mixed to eliminate olfactory cues. For spatial orientation, visual cues are placed on the walls of the testing room.
The test consisted of two trials, separated by a time interval known as the intertrial interval. During the acquisition trial, the animals were placed at the distal end of one arm, their heads pointing away from the centre of the maze. The mice were allowed to visit only two accessible arms of the maze for 3 minutes. At the end of the acquisition trial, the mice were replaced in their cages for the intertrial interval. During the retention trial, the animals had access to all three arms for 5 minutes. The number and duration of time spent in the novel arm were documented.
A shorter intertrial interval (2 hours) separating the acquisition phase from the retention phase enables amnesiant effects to be detected. Control mice still remember the location of the novel arm and will preferentially spend more time (45-50% of time) in that arm.
Mice were surgically implanted with an infusion cannula in the dorsal third ventricle. […]

SK-N-MC cells = assay: [^3H]-thymidine uptake in SK-N-MC cells; type: cell-based; conditions: Ang IV 10^−10-10^−7 M; LVVYPWTQRF 10^−10-10^−6 M
Protocol: NG108-15 and SK-N-MC cells were cultured in DMEM supplemented with 10% heat-inactivated FCS, 2% HAT supplement, and 100 U/ml penicillin/streptomycin. Cells were routinely used between passages 20 and 30.
Cells were plated at a density of 3×10^4 cells/well in 24 well Falcon plates that had been coated with 0.1 mg/ml poly-L-lysine hydrobromide. The cells were allowed to adhere overnight, and then serum deprived for 48 h before being treated with […] (SEQ ID NO:2) and/or Ang IV (10^−10 to 10^−6 M) for 24 h in medium with or without serum. Five hours before the end of the experiment 1 μCi of ^3H-thymidine was added to each well. At the completion of the incubation, cells were washed twice with 1 ml of PBS at 4° C., followed by 5% trichloroacetic acid at 4° C. for 30 min, which was aspirated before solubilizing the cells in 1 ml 0.25 M NaOH and 0.1% SDS for 30 min at 37° C. Samples were then collected into 5 ml of Ready Value scintillation fluid and ^3H measured in a liquid scintillation counter.

T2 sequence (Q9UIQ6 whole entry): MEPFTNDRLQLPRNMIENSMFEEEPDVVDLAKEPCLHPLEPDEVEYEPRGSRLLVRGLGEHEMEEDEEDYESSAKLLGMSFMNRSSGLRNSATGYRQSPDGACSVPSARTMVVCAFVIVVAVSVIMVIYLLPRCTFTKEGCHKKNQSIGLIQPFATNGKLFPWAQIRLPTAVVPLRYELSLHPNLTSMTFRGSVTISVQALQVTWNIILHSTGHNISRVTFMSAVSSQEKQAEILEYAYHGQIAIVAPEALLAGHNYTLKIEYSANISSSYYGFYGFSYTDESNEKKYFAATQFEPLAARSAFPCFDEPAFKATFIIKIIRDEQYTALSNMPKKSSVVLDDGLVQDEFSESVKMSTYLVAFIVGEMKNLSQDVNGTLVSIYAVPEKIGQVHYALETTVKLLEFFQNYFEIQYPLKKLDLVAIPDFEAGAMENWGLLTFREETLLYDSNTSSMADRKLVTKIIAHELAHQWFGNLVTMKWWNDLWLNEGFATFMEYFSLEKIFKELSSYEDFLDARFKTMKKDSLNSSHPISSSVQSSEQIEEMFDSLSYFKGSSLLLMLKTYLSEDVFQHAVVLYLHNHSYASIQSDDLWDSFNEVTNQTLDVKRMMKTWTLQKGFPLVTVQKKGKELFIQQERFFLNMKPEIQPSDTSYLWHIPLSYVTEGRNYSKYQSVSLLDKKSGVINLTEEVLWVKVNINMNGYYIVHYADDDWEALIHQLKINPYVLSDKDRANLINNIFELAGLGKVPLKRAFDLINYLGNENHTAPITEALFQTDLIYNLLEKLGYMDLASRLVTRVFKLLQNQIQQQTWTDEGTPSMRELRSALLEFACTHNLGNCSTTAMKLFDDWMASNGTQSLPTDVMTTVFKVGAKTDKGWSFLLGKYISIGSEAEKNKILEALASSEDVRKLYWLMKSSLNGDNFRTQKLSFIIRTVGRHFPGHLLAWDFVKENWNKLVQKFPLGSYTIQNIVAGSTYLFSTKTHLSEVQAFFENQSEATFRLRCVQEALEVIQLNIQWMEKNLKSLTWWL

LVVYPWTQRF
Ki (AT4 receptor): 1 to 5 nM
Substrate disappearance over 4 hr (IRAP; 37° C., hIRAP transfected HEK 293T membranes, (=UT) equals untransfected control cells): 14% (=UT)
Products Identified (IRAP; incubation at 37° C. with solubilized membrane protein from hIRAP transfected HEK 293T cells): VVYPWTQRF
time in novel arm versus control mice (mice; after 6 days of infusion at 0.3 pmol/h): indistinguishable from each other
time spent in the novel arm (mice; after three days of infusion at 0.3 pmol/h, 6 h intertrial interval, control approximately 33%): 50-60 % of time
increase of [^3H]-thymidine uptake (SK-N-MC cells): up to 81 % above control levels
